Experiments:
[1] = biological target: Tyrosine-protein kinase ITK/TSK (Homo sapiens, UniProt Q08881); assay: Inhibition of recombinant human full length ITK preincubated for 10 mins followed by Tk-biotin peptide substrate addition after 60 mins by TR-FRET assay
[2] = biological target: Cytoplasmic tyrosine-protein kinase BMX (Homo sapiens, UniProt P51813); assay: Inhibition of human BMX
Mus musculus [3] = assay: Dose normalized AUC (0 to 24 hrs) in mouse at 10 mg/kg, po; format: ADME, organism-based; conditions: in vivo
[4] = biological target: T1, Tyrosine-protein kinase BTK (Homo sapiens, UniProt Q06187); assay: Inhibition of human BTK assessed as decrease in […] antibody stimulated BCR mediated CD69 upregulation in whole blood preincubated for 1 hr followed by antibody challenge after 4 hrs by flow cytometry
T1 sequence (Q06187 whole entry): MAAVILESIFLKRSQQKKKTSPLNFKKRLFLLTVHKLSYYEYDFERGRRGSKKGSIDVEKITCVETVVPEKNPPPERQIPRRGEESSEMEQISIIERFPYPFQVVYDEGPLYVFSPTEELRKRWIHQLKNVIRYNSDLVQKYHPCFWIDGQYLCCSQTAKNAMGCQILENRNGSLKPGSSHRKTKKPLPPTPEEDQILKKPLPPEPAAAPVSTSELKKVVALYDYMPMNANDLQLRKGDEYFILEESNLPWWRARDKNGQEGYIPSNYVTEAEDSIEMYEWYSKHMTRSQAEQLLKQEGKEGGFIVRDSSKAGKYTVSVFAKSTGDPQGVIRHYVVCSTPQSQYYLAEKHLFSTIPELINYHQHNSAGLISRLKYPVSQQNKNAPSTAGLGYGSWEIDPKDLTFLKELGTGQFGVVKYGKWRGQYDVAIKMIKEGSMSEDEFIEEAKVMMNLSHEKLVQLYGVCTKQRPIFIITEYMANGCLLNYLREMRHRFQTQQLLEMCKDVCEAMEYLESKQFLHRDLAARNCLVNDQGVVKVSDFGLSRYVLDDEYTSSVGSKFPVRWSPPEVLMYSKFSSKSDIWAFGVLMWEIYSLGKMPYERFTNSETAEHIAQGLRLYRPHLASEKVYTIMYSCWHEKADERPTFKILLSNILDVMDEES

[5] = biological target: STE20-like serine/threonine-protein kinase (Homo sapiens) (UniProt Q9H2G2); assay: Inhibition of recombinant human full length N-terminal GST-tagged SLK expressed in baculovirus infected Sf9 cells assessed as change in enzyme activity at 1 uM in presence of 2 uM ATP relative to control; parameters: scale not given: the % may be the effect or the level left
[6] = biological target: Tyrosine-protein kinase JAK3 (Homo sapiens, UniProt P52333); assay: Inhibition of recombinant human JAK3 (781 to 1124 residues) preincubated for 10 mins followed by poly-[Glu-Tyr(4:1) substrate addition after 60 mins in presence of ATP by Kinase-Glo assay
[7] = biological target: Tyrosine-protein kinase JAK1 (Homo sapiens, UniProt P23458); assay: Inhibition of JAK1 (unknown origin)
[8] = Metabolic stability in mouse liver microsomes assessed as metabolism rate; format: ADME, microsome
[9] = Clearance in mouse at 3 mg/kg, iv; format: ADME, organism-based; conditions: in vivo
Mus musculus [10] = assay: Ex-vivo inhibition of BTK in C57BL/6J mouse assessed as anti-mouse IgD antibody stimulated BCR mediated CD69 level in whole blood isolated from 10 mg/kg, po bid treated mouse measured after 6 hrs post first dose by flow cytometry relative to control; format: functional; parameters: scale not given: the % may be the effect or the level left
[11] = biological target: Tyrosine-protein kinase Blk (Homo sapiens) (UniProt P51451); assay: Inhibition of recombinant human full length N-terminal GST-tagged BLK expressed in baculovirus infected Sf9 cells assessed as change in enzyme activity at 1 uM in presence of 1 uM ATP relative to control; parameters: scale not given: the % may be the effect or the level left
Chain of Tyrosine-protein kinase Blk (Homo sapiens) (P51451 2-505 limits assumed): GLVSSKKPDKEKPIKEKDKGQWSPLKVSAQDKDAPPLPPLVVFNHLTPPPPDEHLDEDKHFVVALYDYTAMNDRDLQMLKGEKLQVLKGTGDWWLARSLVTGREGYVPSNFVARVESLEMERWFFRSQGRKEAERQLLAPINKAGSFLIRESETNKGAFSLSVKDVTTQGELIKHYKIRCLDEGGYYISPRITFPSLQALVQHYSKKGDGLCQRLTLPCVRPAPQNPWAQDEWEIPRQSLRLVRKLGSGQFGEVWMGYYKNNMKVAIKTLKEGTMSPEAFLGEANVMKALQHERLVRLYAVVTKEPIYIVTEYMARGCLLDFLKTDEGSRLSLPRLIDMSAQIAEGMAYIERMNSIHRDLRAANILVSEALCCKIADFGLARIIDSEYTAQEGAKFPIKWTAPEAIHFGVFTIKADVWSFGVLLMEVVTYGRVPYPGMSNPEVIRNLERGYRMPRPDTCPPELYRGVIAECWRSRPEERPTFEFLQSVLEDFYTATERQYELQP

[12] = biological target: Tyrosine-protein kinase TXK (Homo sapiens, UniProt P42681); assay: Inhibition of TXK (unknown origin)
Mus musculus [13] = assay: Ex-vivo inhibition of BTK in C57BL/6J mouse assessed as anti-mouse IgD antibody stimulated BCR mediated CD69 level in whole blood isolated from 30 mg/kg, po bid treated mouse measured after 6 hrs post first dose by flow cytometry relative to control; format: functional; parameters: scale not given: the % may be the effect or the level left
[14] = biological target: Tyrosine-protein kinase ABL1 (Homo sapiens) (UniProt P00519); assay: Inhibition of recombinant human N-terminal GST-tagged ABL1 (27 to end residues) expressed in baculovirus infected Sf9 cells assessed as change in enzyme activity at 1 uM in presence of 1 uM ATP relative to control; parameters: scale not given: the % may be the effect or the level left
[15] = biological target: Rho-associated protein kinase 1 (Homo sapiens) (UniProt Q13464); assay: Inhibition of recombinant human N-terminal GST-tagged ROCK1 (17 to 535 residues) expressed in baculovirus infected Sf9 cells assessed as change in enzyme activity at 1 uM in presence of 1 uM ATP relative to control; parameters: scale not given: the % may be the effect or the level left
[16] = biological target: Homeodomain-interacting protein kinase 4 (Homo sapiens) (UniProt Q8NE63); assay: Inhibition of recombinant human full length N-terminal GST-tagged HIPK4 expressed in baculovirus infected Sf9 cells assessed as change in enzyme activity at 1 uM in presence of 2 uM ATP relative to control; parameters: scale not given: the % may be the effect or the level left
Chain of Homeodomain-interacting protein kinase 4 (Homo sapiens) (Q8NE63 whole entry): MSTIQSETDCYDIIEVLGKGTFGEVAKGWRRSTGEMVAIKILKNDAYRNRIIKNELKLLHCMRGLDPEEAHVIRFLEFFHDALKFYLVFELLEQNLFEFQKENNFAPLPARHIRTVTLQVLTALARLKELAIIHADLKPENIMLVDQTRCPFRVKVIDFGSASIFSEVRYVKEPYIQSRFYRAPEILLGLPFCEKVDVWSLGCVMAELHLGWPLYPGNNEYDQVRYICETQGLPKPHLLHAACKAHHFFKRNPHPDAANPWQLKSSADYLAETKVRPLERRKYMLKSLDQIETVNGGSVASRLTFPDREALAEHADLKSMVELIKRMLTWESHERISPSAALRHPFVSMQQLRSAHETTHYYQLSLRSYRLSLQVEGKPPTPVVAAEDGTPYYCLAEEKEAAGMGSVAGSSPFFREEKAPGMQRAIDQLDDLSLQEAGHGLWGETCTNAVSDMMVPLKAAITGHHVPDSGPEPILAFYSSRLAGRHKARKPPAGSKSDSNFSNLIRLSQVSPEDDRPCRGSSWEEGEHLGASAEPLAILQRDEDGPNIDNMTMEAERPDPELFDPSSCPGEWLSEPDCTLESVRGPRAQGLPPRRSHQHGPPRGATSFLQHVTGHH

[17] = biological target: T1, Tyrosine-protein kinase BTK; assay: Inhibition of recombinant human full length BTK preincubated for 10 mins followed by Tk-biotin peptide substrate addition after 90 mins by TR-FRET assay
[18] = biological target: cAMP-dependent protein kinase catalytic subunit alpha (Homo sapiens) (UniProt P17612); assay: Inhibition of recombinant human full length N-terminal GST-tagged PKACalpha expressed in baculovirus infected Sf9 cells assessed as change in enzyme activity at 1 uM in presence of 1 uM ATP relative to control; parameters: scale not given: the % may be the effect or the level left
[19] = biological target: Serine/threonine-protein kinase 4 (Homo sapiens) (UniProt Q13043); assay: Inhibition of recombinant human full length N-terminal GST-tagged MST1 expressed in baculovirus infected Sf9 cells assessed as change in enzyme activity at 1 uM in presence of 1 uM ATP relative to control; parameters: scale not given: the % may be the effect or the level left
[20] = biological target: Protein kinase C (PKC) (Homo sapiens) (UniProt O94806+P41743+P17252+P05129+Q05655+P05771+Q05513+Q02156+P24723+Q15139+Q04759); assay: Inhibition of recombinant human full length N-terminal GST-tagged PKCalpha expressed in baculovirus infected Sf9 cells assessed as change in enzyme activity at 1 uM in presence of 1 uM ATP relative to control; parameters: scale not given: the % may be the effect or the level left
[21] = biological target: AMPK alpha2/beta1/gamma1 (Homo sapiens) (UniProt P54646+P54619+Q9Y478); assay: Inhibition of recombinant human full length C-terminal His tagged AMPKalpha2beta1gamma1 expressed in baculovirus infected Sf9 cells assessed as change in enzyme activity at 1 uM in presence of 2 uM ATP relative to control; parameters: scale not given: the % may be the effect or the level left
Chain of AMPK alpha2/beta1/gamma1 (Homo sapiens) (P54619 whole entry partner): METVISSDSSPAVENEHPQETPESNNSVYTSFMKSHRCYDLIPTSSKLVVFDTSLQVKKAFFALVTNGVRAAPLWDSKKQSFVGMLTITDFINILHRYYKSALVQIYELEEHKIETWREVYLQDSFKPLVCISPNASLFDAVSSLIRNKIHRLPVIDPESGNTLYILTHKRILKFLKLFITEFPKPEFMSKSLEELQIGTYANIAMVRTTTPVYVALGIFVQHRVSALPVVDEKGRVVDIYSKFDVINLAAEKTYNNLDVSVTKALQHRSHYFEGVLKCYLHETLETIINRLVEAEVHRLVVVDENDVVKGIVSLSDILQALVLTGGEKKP
Chain of AMPK alpha2/beta1/gamma1 (Homo sapiens) (P54646 whole entry): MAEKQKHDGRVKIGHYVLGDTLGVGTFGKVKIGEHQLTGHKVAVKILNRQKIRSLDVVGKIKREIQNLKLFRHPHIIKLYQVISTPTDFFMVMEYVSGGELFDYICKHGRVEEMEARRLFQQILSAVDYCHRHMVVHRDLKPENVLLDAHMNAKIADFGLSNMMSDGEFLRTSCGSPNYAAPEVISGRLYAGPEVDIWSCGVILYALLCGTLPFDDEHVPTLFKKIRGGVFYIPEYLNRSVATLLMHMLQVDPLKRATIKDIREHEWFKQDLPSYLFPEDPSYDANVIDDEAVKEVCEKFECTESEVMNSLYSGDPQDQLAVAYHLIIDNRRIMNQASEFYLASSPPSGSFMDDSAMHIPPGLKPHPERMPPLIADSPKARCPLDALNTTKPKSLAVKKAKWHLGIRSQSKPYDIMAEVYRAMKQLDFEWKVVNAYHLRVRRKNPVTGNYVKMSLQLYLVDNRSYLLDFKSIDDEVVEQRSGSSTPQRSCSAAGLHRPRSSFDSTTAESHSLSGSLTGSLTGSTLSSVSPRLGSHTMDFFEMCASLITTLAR
Chain of AMPK alpha2/beta1/gamma1 (Homo sapiens) (Q9Y478 2-270 partner limits assumed): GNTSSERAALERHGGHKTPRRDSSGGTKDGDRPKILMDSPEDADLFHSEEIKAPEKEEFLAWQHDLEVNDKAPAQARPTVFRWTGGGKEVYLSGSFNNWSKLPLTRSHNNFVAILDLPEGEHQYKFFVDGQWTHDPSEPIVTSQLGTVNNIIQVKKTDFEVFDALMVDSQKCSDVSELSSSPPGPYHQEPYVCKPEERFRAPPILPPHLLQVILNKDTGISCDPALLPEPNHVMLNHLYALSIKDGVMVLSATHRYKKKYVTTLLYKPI

[22] = biological target: Mitogen-activated protein kinase 8 (Mus musculus) (UniProt Q91Y86); assay: Inhibition of recombinant mouse N-terminal GST-tagged JNK1 expressed in baculovirus infected Sf9 cells assessed as change in enzyme activity at 1 uM in presence of 1 uM ATP relative to control; parameters: scale not given: the % may be the effect or the level left
Chain of Mitogen-activated protein kinase 8 (Mus musculus) (Q91Y86 whole entry): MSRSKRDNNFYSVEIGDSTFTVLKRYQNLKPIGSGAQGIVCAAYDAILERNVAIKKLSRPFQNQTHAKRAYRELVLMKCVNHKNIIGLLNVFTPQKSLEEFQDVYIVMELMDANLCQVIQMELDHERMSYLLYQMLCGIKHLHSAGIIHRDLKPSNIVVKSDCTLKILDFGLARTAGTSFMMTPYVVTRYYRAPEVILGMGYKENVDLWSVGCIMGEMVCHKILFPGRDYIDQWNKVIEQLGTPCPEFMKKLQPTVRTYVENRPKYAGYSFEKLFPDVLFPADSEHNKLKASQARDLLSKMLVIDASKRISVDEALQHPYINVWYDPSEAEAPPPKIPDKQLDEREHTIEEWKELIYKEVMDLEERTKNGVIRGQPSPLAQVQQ

[23] = biological target: TGF-beta receptor type-2 (Homo sapiens) (UniProt P37173); assay: Inhibition of recombinant N-terminal GST-tagged TGFBR2 (unknown origin) expressed in baculovirus infected Sf9 cells assessed as change in enzyme activity at 1 uM in presence of 1 uM ATP relative to control; parameters: scale not given: the % may be the effect or the level left
Chain of TGF-beta receptor type-2 (Homo sapiens) (P37173 whole entry): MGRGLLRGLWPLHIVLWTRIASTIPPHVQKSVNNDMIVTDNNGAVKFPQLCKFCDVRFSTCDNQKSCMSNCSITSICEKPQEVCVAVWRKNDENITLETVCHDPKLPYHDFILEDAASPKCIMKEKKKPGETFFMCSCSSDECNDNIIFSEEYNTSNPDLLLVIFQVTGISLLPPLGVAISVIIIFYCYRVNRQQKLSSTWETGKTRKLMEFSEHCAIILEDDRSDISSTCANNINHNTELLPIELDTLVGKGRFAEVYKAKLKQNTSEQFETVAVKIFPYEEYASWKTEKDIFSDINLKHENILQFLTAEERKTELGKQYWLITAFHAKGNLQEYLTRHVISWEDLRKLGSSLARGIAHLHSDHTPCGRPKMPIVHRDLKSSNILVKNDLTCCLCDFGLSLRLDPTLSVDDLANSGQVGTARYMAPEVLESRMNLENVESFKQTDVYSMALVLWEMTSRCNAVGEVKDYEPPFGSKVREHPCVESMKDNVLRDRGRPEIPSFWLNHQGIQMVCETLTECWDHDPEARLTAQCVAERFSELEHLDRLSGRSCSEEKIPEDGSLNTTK

[24] = biological target: High affinity nerve growth factor receptor (Homo sapiens) (UniProt P04629); assay: Inhibition of recombinant human N-terminal GST-tagged TRKA (440 to end residues) expressed in baculovirus infected Sf9 cells assessed as change in enzyme activity at 1 uM in presence of 2 uM ATP relative to control; parameters: scale not given: the % may be the effect or the level left
[25] = biological target: Cytoplasmic tyrosine-protein kinase BMX (Homo sapiens) (UniProt P51813); assay: Inhibition of recombinant full length N-terminal GST-tagged BMX (unknown origin) expressed in baculovirus infected Sf9 cells assessed as change in enzyme activity at 1 uM in presence of 2 uM ATP relative to control; parameters: scale not given: the % may be the effect or the level left
[26] = biological target: Tyrosine-protein kinase JAK2 (Homo sapiens, UniProt O60674); assay: Inhibition of JAK2 (unknown origin)
Chain of Tyrosine-protein kinase JAK2 (O60674 whole entry): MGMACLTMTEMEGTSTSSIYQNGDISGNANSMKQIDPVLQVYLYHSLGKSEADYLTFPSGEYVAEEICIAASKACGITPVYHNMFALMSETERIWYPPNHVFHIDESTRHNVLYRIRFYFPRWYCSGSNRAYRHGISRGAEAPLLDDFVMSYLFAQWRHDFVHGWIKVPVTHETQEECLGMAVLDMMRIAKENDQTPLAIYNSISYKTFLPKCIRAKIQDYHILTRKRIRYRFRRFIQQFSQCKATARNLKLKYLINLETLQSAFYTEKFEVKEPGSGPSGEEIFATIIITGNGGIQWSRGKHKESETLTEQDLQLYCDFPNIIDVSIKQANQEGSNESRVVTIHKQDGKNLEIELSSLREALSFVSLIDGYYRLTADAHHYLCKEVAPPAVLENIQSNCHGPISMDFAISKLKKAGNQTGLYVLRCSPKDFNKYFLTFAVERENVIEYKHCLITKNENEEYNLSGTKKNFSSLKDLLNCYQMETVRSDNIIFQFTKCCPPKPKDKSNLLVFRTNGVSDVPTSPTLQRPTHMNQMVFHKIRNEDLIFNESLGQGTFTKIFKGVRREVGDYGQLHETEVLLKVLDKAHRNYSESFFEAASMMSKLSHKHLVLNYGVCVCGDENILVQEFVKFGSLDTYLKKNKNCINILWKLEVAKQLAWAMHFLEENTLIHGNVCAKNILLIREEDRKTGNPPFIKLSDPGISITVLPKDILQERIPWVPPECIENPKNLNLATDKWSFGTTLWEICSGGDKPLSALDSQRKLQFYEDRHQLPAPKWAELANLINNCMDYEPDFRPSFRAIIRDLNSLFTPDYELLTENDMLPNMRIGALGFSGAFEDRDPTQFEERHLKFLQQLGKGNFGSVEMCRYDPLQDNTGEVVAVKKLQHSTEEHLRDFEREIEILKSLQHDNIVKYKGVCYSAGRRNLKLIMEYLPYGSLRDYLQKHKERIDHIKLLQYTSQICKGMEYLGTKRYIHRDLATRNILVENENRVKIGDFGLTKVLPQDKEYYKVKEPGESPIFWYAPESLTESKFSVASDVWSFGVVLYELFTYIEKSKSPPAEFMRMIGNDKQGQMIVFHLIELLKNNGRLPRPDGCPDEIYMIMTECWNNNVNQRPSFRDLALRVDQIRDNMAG

Mus musculus [27] = assay: Antiarthritic activity in DBA/1J mouse type-2 collagen-induced arthritis model assessed as reduction in joint histological score immunized with type-2 collagen on day 1 and day 21 followed by LPS challenge on day 28 subsequent compound administration po bid by hematoxylin and eosin staining based assay; format: functional, organism-based
[28] = biological target: Mitogen-activated protein kinase 14 (Homo sapiens) (UniProt Q16539); assay: Inhibition of recombinant human full length N-terminal GST-tagged p38alpha expressed in baculovirus infected Sf9 cells assessed as change in enzyme activity at 1 uM in presence of 1 uM ATP relative to control; parameters: scale not given: the % may be the effect or the level left

CCN1CCN(Cc2ccc(-c3cc4c(-c5cccc(N6CCOc7cc(C8CC8)cc(F)c7C6=O)c5CO)ccnc4[nH]3)nc2)CC1
IC50 [1]: > 10 µM
IC50 [2]: 1.55 µM
AUC/dose (Mus musculus [3]): 27 µM·h
IC50 [4]: 0.0835 µM
Activity [5]: -5%
IC50 [6]: > 10 µM
IC50 [7]: > 10 µM
Drug metabolism [8]: < 0.04 nmol/min/mg
clearance [9]: 4.6 mL/min/kg
Activity (Mus musculus [10]): 69%
Activity [11]: 1%
IC50 [12]: > 10 µM
Activity (Mus musculus [13]): 81%
Activity [14]: -41%
Activity [15]: -4%
Activity [16]: 1%
IC50 [17]: 0.0026 µM
Activity [18]: -2%
Activity [19]: -3%
Activity [20]: -1%
Activity [21]: 2%
Activity [22]: 1%
Activity [23]: 2%
Activity [24]: -4%
Activity [25]: -49%
IC50 [26]: > 10 µM
Activity (Mus musculus [27]): Dose-dependent effect
Activity [28]: -7%

O=C1c2c(F)cc(C3CC3)cc2OCCN1c1cccc(-c2ccnc3[nH]c(C4=CCN(C5COC5)CC4)cc23)c1CO
IC50 [1]: > 10 µM
IC50 [2]: 4.68 µM
AUC/dose (Mus musculus [3]): 25.8 µM·h
IC50 [4]: 0.261 µM
Activity [5]: -9%
IC50 [6]: > 10 µM
IC50 [7]: > 10 µM
Drug metabolism [8]: < 0.04 nmol/min/mg
clearance [9]: 5.5 mL/min/kg
Activity (Mus musculus [10]): 44%
Activity [11]: 3%
IC50 [12]: > 10 µM
Activity (Mus musculus [13]): 56%
Activity [14]: -16%
Activity [15]: 3%
Activity [16]: 3%
IC50 [17]: 0.0031 µM
Activity [18]: 0%
Activity [19]: 5%
Activity [20]: -1%
Activity [21]: 1%
Activity [22]: -4%
Activity [23]: 3%
Activity [24]: -10%
Activity [25]: -10%
IC50 [26]: > 10 µM
Activity (Mus musculus [27]): Dose-dependent effect
Activity [28]: 4%

— ChEMBL document CHEMBL4177534, “Discovery and evaluation of 1H-pyrrolo[2,3-b]pyridine based selective and reversible small molecule BTK inhibitors for the treatment of rheumatoid arthritis” (Bioorg Med Chem Lett, 2017)
